From ChEMBL document CHEMBL3351881, “Chemical constituents isolated from Disporum viridescens leaves and their inhibitory effect on nitric oxide production in BV2 microglial cells” (Bioorg Med Chem Lett, 2014)
The source made the active and inactive calls. No cut-off for these calls is given here.

Legend:
BV-2 [1] = assay: Neuroprotective effect in […] cells assessed as LPS-induced nitric oxide production at 10 to 100 uM incubated for 1 hr prior to LPS challenge measured after 24 hrs by Griess assay; assay type: functional, cell-based; details: Mus musculus
[2] = molecular target: T1, NF-kappa-B inhibitor alpha (Homo sapiens) (UniProt P25963); assay: Inhibition of LPS-induced IkB-alpha degradation in […] cells at 0.1 uM by Western blotting analysis; assay type: cell-based; details: BV-2
T1 sequence (whole entry): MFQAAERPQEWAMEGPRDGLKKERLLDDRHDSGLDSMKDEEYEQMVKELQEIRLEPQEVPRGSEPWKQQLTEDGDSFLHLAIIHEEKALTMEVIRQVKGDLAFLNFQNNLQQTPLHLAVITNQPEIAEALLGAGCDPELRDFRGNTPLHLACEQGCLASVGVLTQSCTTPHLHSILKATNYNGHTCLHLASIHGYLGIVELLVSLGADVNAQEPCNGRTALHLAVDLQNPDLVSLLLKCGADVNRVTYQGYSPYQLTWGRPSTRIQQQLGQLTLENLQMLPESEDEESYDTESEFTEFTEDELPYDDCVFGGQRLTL

[3] = system: MAP kinase p38 (Mus musculus); assay: Inhibition of LPS-induced p38 phosphorylation in mouse BV2 cells at 0.1 uM by Western blotting analysis; details: BV-2
[4] = system: c-Jun N-terminal kinase, JNK (Mus musculus); assay: Inhibition of LPS-induced JNK phosphorylation in mouse BV2 cells at 0.1 uM by Western blotting analysis; details: BV-2
BV-2 [5] = assay: Inhibition of LPS-induced iNOS protein expression in […] cells at 0.1 uM by Western blotting analysis; assay type: functional, cell-based
BV-2 [6] = assay: Inhibition of LPS-induced ERK phosphorylation in […] cells at 0.1 uM by Western blotting analysis; assay type: cell-based
BV-2 [7] = assay: Inhibition of LPS-induced COX-2 protein expression in […] cells at 0.1 uM by Western blotting analysis; assay type: functional, cell-based

SMILES	Activity (BV-2 [1])	inhibition [2]	inhibition [3]	inhibition [4]	inhibition (BV-2 [5])	inhibition (BV-2 [6])	inhibition (BV-2 [7])
COc1cc([C@H]2OC[C@@]3(O[C@@H]4O[C@H](CO)[C@@H](O)[C@H](O)[C@H]4O)C2CO[C@@H]3c2ccc(O)c(OC)c2)ccc1O (some centres not stated)	Active	–	–	–	–	–	–
COc1cc([C@H]2O[C@H](O)C3C2CO[C@@H]3c2ccc(O)c(OC)c2)ccc1O (some centres not stated)	Active	inactive	Active	Active	Active	Active	Active
COc1cc([C@H]2Oc3c(O)cc(CCCO)cc3[C@@H]2CO)ccc1O	Active	–	–	–	Active	–	Active
COc1cc([C@H]2Oc3c(OC)cc(CCCO)cc3[C@@H]2CO[C@@H]2O[C@H](CO)[C@@H](O)[C@H](O)[C@H]2O)ccc1O	Active	–	–	–	–	–	–
